Assay [1] has as its system necrotizing enterocolitis in neonatal rats. Put plainly: Necrotizing enterocolitis neonatal rat model. Type of assay: in vivo, Sprague-Dawley rats. As to conditions: formula containing 300 μg/mL glycan; for mean ileum pathology score (0: healthy; 4: complete destruction): oral gavage twice daily, 96 hours, mean±standard deviation. The method, then: Rat studies. The efficacy of the synthesized glycans against necrotizing enterocolitis was tested in the same neonatal rat model as previously described for DSLNT. Briefly, pregnant time-dated Sprague-Dawley rats were induced at term and immediately randomized into one of the different study groups. Animals in the dam-fed group (DF) remained with the dam. All other animals were separated from the dam, housed in a temperature- and humidity-controlled incubator and orally gavaged with a special rodent formula (0.2 mL) twice daily. All animals, dam-fed and gavaged, were exposed to 10 min of hypoxia (5% O2, 95% N2) thrice daily in a modular chamber. All animals were sacrificed 96 hours post-partum, and 0.5 cm of the terminal ileum prepared for H&E staining per standard protocols and scored blindly based on morphological changes that included epithelial sloughing, villus edema, infiltration of neutrophils, apoptosis of villus enterocytes, crypt hyperplasia and misaligned nuclei in the epithelium. If at least one pathology sign was observed, a score of 0.5-1.5 was assigned depending on severity. […] The maximum score of 4 was given in case of complete obliteration of the epithelium with or without intestinal perforation. Pathology scores were plotted for each animal and the mean calculated per group. Differences between the groups were calculated by 1 way ANOVA with Kruskal-Wallis test and Dunn's Multiple Comparison test. Significance was defined as a P value of less than 0.05.

The subject of assay [2] is T1, MBP-KfiA-His6 (Escherichia coli).
T1 construct: made in house; host or cells: E. coli BL21(DE3) co-expressing chaperone plasmid pGro7
Briefly: GlcNAcT donor substrate specificity of MBP-KfiA-His6 (Example 12). As to conditions: acceptor GlcAβ2AA 1 mM, UDP-sugar 1 mM, MnCl2 10 mM, KfiA 2.8 μg μl^−1, 24 h, 37° C. It is filed as biochemical, E. coli. The procedure, abridged: (§1)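 In MES (100 mM, pH 6.5) with 1 mM UDP-GlcNAc or derivative, 1 mM GlcAβ2AA acceptor and 10 mM MnCl2, with KfiA (2.8 μg μl^−1) or PmHS2 (1.1 μg μl^−1); 37° C, 24 h, duplicate. Product-to-acceptor ratio measured by fluorescence HPLC (ex 315/em 400 nm).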

The test system of assay [3] is PmHS2. Briefly: Small-scale PmHS2 donor substrate test by TLC. It is filed as biochemical, Pasteurella multocida. Conditions: GlcAβ2AAMe 10 mM, donor 15 mM, MgCl2 10 mM, PmHS2 0.5 mg/mL, pH 7.5, 37° C., 12 hr.
The test system of a further assay is His6-PmHS2. Put plainly: GlcNAcT donor substrate specificity of His6-PmHS2 (Example 12). Type of assay: biochemical, Pasteurella multocida. Conditions: acceptor GlcAβ2AA 1 mM, UDP-sugar 1 mM, MnCl2 10 mM, PmHS2 1.1 μg μl^−1, 24 h, 37° C. The procedure, abridged:
as §1

In assay [4] the test system is PmHS2. Put plainly: Donor substrate specificity of PmHS2 by HPLC (Example 1). Type of assay: biochemical, Pasteurella multocida. Conditions: acceptor GlcAα2AA 1 mM, UDP-sugar 1 mM, MnCl2 10 mM, pH 6.5, 37° C. Here is the method:
(§2) pH profile by HPLC. Typical enzymatic assays were performed in a 10 μl reaction mixture containing a buffer (100 mM) with a pH in the range of 4.0-10.0, UDP-GlcNAc (1 mM), GlcAβ2AA (1 mM), MnCl2 (10 mM) and KfiA (9.0 μg) or PmHS2 (0.25 μg). Buffers used were: Na2HPO4/citric acid, pH 4.0; MES, pH 5.0-6.5; TrisHCl, pH 7.0-9.0; and CAPS, pH 10.0. Reactions were allowed to proceed for 30 min at 37° C. and were quenched by adding ice-cold 10% (v/v) acetonitrile to make 100-fold dilutions. The samples were then kept on ice until an aliquot of 8 μl was injected and analyzed by a Shimadzu LC-2010A system equipped with a membrane on-line degasser, a temperature control unit and a fluorescence detector. A reverse phase Premier C18 column (250 9 4.6 mm I.D., 5 μm particle size, Shimadzu) protected with a C18 guard column cartridge was used. The mobile phase was 25% (v/v) acetonitrile. The fluorescent compounds GlcAβ2AA and GlcNAcα1-4GlcAβ2AA were detected by excitation at 315 nm and emission at 400 nm.
(§3) Substrate specificity of KfiA and PmHS2. All reactions were carried out in duplicate at 37° C. in MES (100 mM, pH 6.5) containing an UDP-GlcNAc or its derivatives (1 mM), […] (1 mM), MnCl2 (10 mM) and KfiA ([…] PmHS2 (2.5×10^−2 μg μl^−1). At 30 min, 4 h or 16 h, aliquots of reaction mixture were withdrawn and were quenched by adding ice-cold 10% (v/v) acetonitrile to make 100-fold dilutions. The assays were analyzed by HPLC.

The next assay has as its system KfiA. Briefly: Donor substrate specificity of KfiA by HPLC (Example 1). It is filed as biochemical, E. coli. As to conditions: acceptor GlcAα2AA 1 mM, UDP-sugar 1 mM, MnCl2 10 mM, pH 6.5, 37° C. The method, then: as §2, §3
The next assay concerns the target NahK_ATCC15697 (Bifidobacterium longum, UniProt B7GN78). Put plainly: Substrate specificity CE assay, NahK_ATCC15697. Type of assay: biochemical, Bifidobacterium infantis. As to conditions: Glc, Gal, Man, ManNAc and derivatives; enzyme 15, 37° C. for 30 min (Table 3); listed as drawing 47.
The next assay relates to NahK. Briefly: Kinase reaction monitored by CE (ATP to ADP), NahK. As to conditions: monosaccharide 15 mM, ATP 18 mM, 37° C. Type of assay: biochemical, Bifidobacterium infantis. Here is the method:
(§4) Capillary electrophoresis (CE) and thin-layer chromatograph (TLC) assays for kinase reactions. Kinase reactions were carried out at 37° C. in a total volume of 30 μL in Tris-HCl buffer (100 mM, pH 8.0) containing monosaccharide (15 mM), ATP (18 mM, 1.2 eq.), MgCl2 (10 mM), and a kinase (6 μg). These conditions were similar to those used for preparative-scale synthesis. After 1 hr, 4 hr, and 24 hr, an aliquot of 8 μL was withdrawn from each reaction mixture, boiled in a water bath for 5 min and stored at −20° C. until being analyzed by capillary electrophoresis (CE) and TLC. For TLC analysis, 0.5 μL of each sample was directly spotted on TLC plates, developed using suitable developing solvents, and stained with anisaldehyde sugar stain. For CE analysis, 1.5 μL of each sample was diluted into 30 μL and subjected to CE analysis as described above for pH profile studies.
General methods for compound purification and characterization. Chemicals were purchased and used without further purification. ^1H NMR and ^13C NMR spectra were recorded on a Varian Mercury 600 NMR spectrometer. High resolution electrospray ionization (ESI) mass spectra were obtained in negative mode using Thermo Electron LTQ-Orbitrap mass spectrometer. Silica gel 60 Å (Sorbent Technologies) was used for flash column chromatography. Thin-layer chromatography (TLC) was performed on silica gel plates 60 GF254 (Sorbent Technologies) using anisaldehyde sugar stain for detection. Gel filtration chromatography was performed with a column (100 cm×2.5 cm) packed with BioGel P-2 Fine resins (Bio-Rad). GlcN3 (T6-9) (Lau K, Thon, V, Yu H, Ding L, Chen Y, Muthana M M, Wong D, Huang R, and Chen X. Chem. Commun. 2010, 46, 6066-6068), ManF (T6-11) (Burkart M D, Zhang Z, Hung S-C, and Wong C-H. J. Am. Chem. Soc. 1997, 119, 11743-11746; Cao H, Li Y, Lau K, Muthana S, Yu H, Cheng J, Chokhawala H A, Sugiarto G, Zhang L, and Chen X. Org. Biomol. Chem. 2009, 7, 5137-5145), GalN3 (T6-4) and ManN3 (T6-14) (Yu H, Yu H, Karpel R, cand Chen X. Bioorg. Med. Chem. 2004, 12, 6427-6435) were previously synthesized using reported methods. NahK_ATCC15697, EcGalK, SpGalK, and PmPpA were overexpressed as described previously.

A further assay concerns the target NahK_ATCC55813 (Bifidobacterium longum subsp. longum, UniProt E8MF12, D7V/R348H). It is filed as biochemical. Conditions: Glc, Gal, Man, ManNAc and derivatives; enzyme 15, 37° C. for 30 min (Table 3); listed as drawing 47. On the set-up: made in house; host or cells: E. coli BL21(DE3).
For the next assay, the target named is T2, AtGlcAK (Arabidopsis thaliana, UniProt Q93ZC9, I297M).
T2 construct: made in house; host or cells: E. coli BL21 (DE3)
Put plainly: AtGlcAK substrate specificity CE assay. As to conditions: High enzyme Conc. (2.1 μg in 20 μL, 60 min, 37° C.). It is filed as biochemical. The method, then: Substrate specificity assays. […] The reactions were quenched and assayed with the same method as those for pH profile. All reactions were performed in duplicates.

The target of the next assay is T3, SpGalK (Streptococcus pneumoniae serotype 4, UniProt Q97NZ6).
T3 construct: made in house
Put plainly: Kinase reaction monitored by CE (ATP to ADP), SpGalK. Type of assay: biochemical, Streptococcus pneumoniae TIGR4. Conditions: monosaccharide 15 mM, ATP 18 mM, 37° C. Here is the method:
as §4, with “Kinase reactions were carried out at 37° C. in a total volume of 30 μL in Tris-HCl buffer (100 mM, pH 8.0) containing monosaccharide (15 mM), ATP (18 mM, 1.2 eq.), MgCl2 (10 mM), and a kinase (6 μg).” left out

The target of another assay is T4, EcGalK (Escherichia coli, UniProt P0A6T3).
T4 construct: made in house
Put plainly: Kinase reaction monitored by CE (ATP to ADP), EcGalK. Conditions: monosaccharide 15 mM, ATP 18 mM, 37° C. It is filed as biochemical. The method, then:
as §4, with “Kinase reactions were carried out at 37° C. in a total volume of 30 μL in Tris-HCl buffer (100 mM, pH 8.0) containing monosaccharide (15 mM), ATP (18 mM, 1.2 eq.), MgCl2 (10 mM), and a kinase (6 μg).” left out

The text below walks through data of US10160986B2, “Chemoenzymatic synthesis of heparin and heparan sulfate analogs” (The Regents of the University of California, priority 2011, dated 2018).

Consider `CC(=O)N[C@H]1[C@H](O[C@H]2[C@@H](O)[C@@H](CO)O[C@@H](O[C@H]3[C@H](O)[C@@H](O)C(O)O[C@@H]3CO)[C@@H]2O)O[C@H](CO)[C@@H](O[C@@H]2O[C@H](CO)[C@H](O)[C@H](O[C@]3(C(=O)O)C[C@H](O)[C@@H](NC(C)=O)[C@H]([C@H](O)[C@H](O)CO)O3)[C@H]2O)[C@@H]1O` (some centres unmarked) [3′″-sLNnT, Neu5Acα2-3Galβ1-4GlcNAcβ1-3Galβ1-4Glc], for which, in [1], the “NEC preventing effect in neonatal rats” value is “lacking of NEC preventing effect” and the “mean ileum pathology score (0: healthy; 4: complete destruction)” value is 2.05±0.55.
Turning to `CC(=O)N[C@H]1[C@@H](OP(=O)(O)OP(=O)(O)OC[C@H]2O[C@@H](n3ccc(=O)[nH]c3=O)[C@H](O)[C@@H]2O)O[C@H](CO)[C@@H](O)[C@@H]1O` [Compound F17-1, Uridine 5′-diphospho-2-acetamido-2-Deoxy-α-D-glucopyranoside], in assay [2], the “donor substrate for MBP-KfiA-His6” value is given as “can be used by MBP-KfiA-His6”. For the same compound, the “donor substrate for PmHS2” value is on record as “tolerable donor substrates” in the assay with PmHS2 [3] and “best substrate” in the assay with PmHS2 [4]. Besides, in the assay with His6-PmHS2, the “donor substrate for the α1-4GlcNAcT activity of His6-PmHS2” value is recorded as “suitable donor substrates for His6-PmHS2”. For the same compound, the “donor substrate for KfiA” value in the assay on KfiA is on record as “best substrate”.
Consider `O=C(NC1C(OP(=O)(O)OP(=O)(O)OCC2OC(n3ccc(=O)[nH]c3=O)C(O)C2O)OC(CO)C(O)C1O)C(F)(F)F` [Compound F17-2, Uridine 5′-diphospho-2-deoxy-2-trifluoroacetamido-α-D-glucopyranoside], for which the entries for the “donor substrate for PmHS2” value with PmHS2 [3] and in the assay on PmHS2 [4] were “tolerable donor substrates” and “can use”, respectively. The “donor substrate for KfiA” value in the assay with KfiA is “can use”.
Consider `O=C(CO)N[C@H]1[C@@H](OP(=O)(O)OP(=O)(O)OC[C@H]2O[C@@H](n3ccc(=O)[nH]c3=O)[C@H](O)[C@@H]2O)O[C@H](CO)[C@@H](O)[C@@H]1O` [Compound F17-3, Uridine 5′-diphospho-2-hydroxyacetamido-2-deoxy-α-D-glucopyranoside], for which the “donor substrate for PmHS2” value is “tolerable donor substrates” with PmHS2 [3] and “can use” in the assay on PmHS2 [4]. In addition, the “donor substrate for KfiA” value in the assay on KfiA was “can use”.
For the compound `[N-]=[N+]=NCC(=O)N[C@H]1[C@@H](OP(=O)(O)OP(=O)(O)OC[C@H]2O[C@@H](n3ccc(=O)[nH]c3=O)[C@H](O)[C@@H]2O)O[C@H](CO)[C@@H](O)[C@@H]1O` [Compound F17-4, Uridine 5′-diphospho-2-azidoxyacetamido-2-deoxy-α-D-glucopyranoside], the “donor substrate for PmHS2” value in the assay on PmHS2 [3] is reported as “tolerable donor substrates”; with PmHS2 [4], “can use”. For the same compound, the “donor substrate for KfiA” value in the assay with KfiA was “can use”.
On to `OCC1OC(O)C(O)[C@@H](O)[C@@H]1O` (some centres unmarked) [Glc, glucose], for which the “Percentage Conversion” value is given as 9.1 ± 0.1% at NahK_ATCC15697 and 4.7 ± 0.1% at NahK_ATCC55813. The “ATP Conversion” value in the assay with NahK (4 hr) came to 18.6%; in the assay on NahK (24 hr), 82.2%; on SpGalK (1 hr), 6.9%; at SpGalK (4 hr), 13.8%; at SpGalK (24 hr), 75.5%; on EcGalK (1 hr), 8.2%. Besides, the results for the “ATP Conversion” value at EcGalK (4 hr) and at EcGalK (24 hr) were 13.0% and 66.4%, respectively. Also, the “Percentage conversion of ATP” value at AtGlcAK is reported as less than 5%.
Consider “Neu5Acα2-6Galβ1-4GlcNAcβ1-3(Neu5Acα2-6)Galβ1-4Glc [DSLNnT]”, for which, in [1], the “NEC preventing effect in neonatal rats” value is given as “protects neonatal rats from necrotizing enterocolitis” and the “mean ileum pathology score (0: healthy; 4: complete destruction)” value amounted to 1.29±0.54.
